In US12121521B2, “Uses of salt-inducible kinase (SIK) inhibitors for treating osteoporosis” (The General Hospital Corporation, priority 2016, dated 2024):
pKd: −log10 of the molar value.

Experiments:
SIK2 = biological target: T1, SIK2 (Homo sapiens, UniProt Q9H0K1); assay: Kd determination for SIK2 (bound kinase measured by qPCR); type: binding
T1 construct: T7 phage fusion (most kinases) or DNA tag after HEK-293 expression; purchased DiscoverX (Fremont, CA), ScanEDGE; host or cells: T7 phage in E. coli BL21-derived host, or HEK-293
T1 sequence (Q9H0K1 whole entry, the tested form may be a part): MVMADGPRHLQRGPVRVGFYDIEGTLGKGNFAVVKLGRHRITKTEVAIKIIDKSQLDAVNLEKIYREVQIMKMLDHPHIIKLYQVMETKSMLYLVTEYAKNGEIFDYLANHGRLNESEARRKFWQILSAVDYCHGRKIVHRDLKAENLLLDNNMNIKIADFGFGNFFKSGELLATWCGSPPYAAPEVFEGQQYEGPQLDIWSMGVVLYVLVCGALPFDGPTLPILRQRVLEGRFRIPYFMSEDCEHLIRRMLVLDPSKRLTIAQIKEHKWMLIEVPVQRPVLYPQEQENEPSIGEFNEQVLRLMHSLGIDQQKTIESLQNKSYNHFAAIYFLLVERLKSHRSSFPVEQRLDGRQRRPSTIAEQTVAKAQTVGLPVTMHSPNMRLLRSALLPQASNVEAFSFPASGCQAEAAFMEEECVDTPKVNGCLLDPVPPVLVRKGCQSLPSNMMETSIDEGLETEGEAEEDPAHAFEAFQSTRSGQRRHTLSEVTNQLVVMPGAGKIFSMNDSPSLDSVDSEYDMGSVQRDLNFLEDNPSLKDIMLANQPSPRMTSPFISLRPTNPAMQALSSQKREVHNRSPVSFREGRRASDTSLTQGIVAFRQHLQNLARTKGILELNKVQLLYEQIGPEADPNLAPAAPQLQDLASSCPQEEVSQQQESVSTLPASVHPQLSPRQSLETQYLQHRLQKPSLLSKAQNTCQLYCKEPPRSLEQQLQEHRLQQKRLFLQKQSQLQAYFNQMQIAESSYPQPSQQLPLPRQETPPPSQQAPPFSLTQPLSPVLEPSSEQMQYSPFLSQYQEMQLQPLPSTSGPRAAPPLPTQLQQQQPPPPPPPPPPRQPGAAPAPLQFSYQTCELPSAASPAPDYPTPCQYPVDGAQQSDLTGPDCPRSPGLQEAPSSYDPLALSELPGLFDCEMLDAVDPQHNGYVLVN
Procedure: FIGS. 5A to 5J: Small molecule SIK inhibitors regulate SOST and RANKL expression by osteocytes. (FIG. 5A) Structure of YKL-04-114 (top panel, left), YKL-05-093 (top panel, right), and YKL-05-093 Kd determination curves for SIK2 (bottom panels). For the Kd determination curves, the y-axis represents the amount of bound kinase measured by qPCR (see methods), and the x-axis represents the corresponding compound concentration in nM. (FIG. 5B) Ocy454 cells were treated with YKL-04-114 (10 μM) for the indicated times, followed by immunoblotting of whole cell lysates as indicated. (FIG. 5C) Ocy454 cells were treated with the indicated concentrations of YKL-04-114 for 60 minutes, followed by immunoblotting of whole cell lysates as indicated. […] Right: quantification of nuclear fraction (defined as nuclear/total) of HDAC4 or CRTC2. * indicates p<0.01 comparing treatment vs vehicle. […] Quantification of HDAC4 S246 phosphorylation, as assessed by densitometric analysis of immunoblots, is shown. * indicates p<0.01 comparing treatment vs vehicle. # indicates p<0.05 for the same comparison. […] (FIG. 5G) Control and SIK2/3 deficient cells were treated with YKL-05-093 (0.5 μM) for 4 hours and SOST transcript abundance was measured by RT-qPCR. (FIG. 5H) Control and CRTC2 shRNA cells were treated with PTH (1 nM) or YKL-05-093 (0.5 μM) for 4 hours and RANKL transcript abundance was measured by RT-qPCR. […]

Ocy454 cells = assay: RNA-seq of treated Ocy454 cells; type: cell-based, mouse
Procedure: The ability of YKL-05-093 to mimic the effects of PTH with respect to SOST and RANKL gene regulation supports the hypothesis that the actions of YKL-05-093 might mimic the effects of PTH on many genes. Therefore, RNA-seq was perfumed on Ocy454 cells treated for four hours with vehicle, PTH (1 nM), or YKL-05-093 (0.5 μM) to determine the overlap in global gene regulation by these two agents. […] Of the 446 PTH-regulated genes, 142 (32%) were co-regulated in the same direction by YKL-05-093 (FIGS. 6A and 6B and Table 3 for differentially expressed genes, and Table 4 for all RNA-seq data). This significant overlap was not due to random chance (FIGS. 15A and 15B). Gene ontology analysis for the genes regulated by both PTH and YKL-05-093 is shown in FIGS. 15C and 15D: many of the co-regulated genes fit into categories of interest such as “ossification” and “mesenchyme development”,
Total RNA was subjected to rRNA depletion using RiboZero kit (Illumina) followed by NGS library construction using NEBNext Ultra Directional RNA Library Prep Kit for Illumina (New England Biolabs). Experimental duplicates were performed for each condition. Sequencing was performed on Illumina HiSeq 2500 instrument, resulting in an average of 33 million pairs of 50 bp reads per sample. Sequencing reads were mapped to the mouse reference genome (mm10/GRCm38) using STAR (bioinformatics.oxfordjournals.org/content/early/2012/10/25/bioinformatics.bts635). Gene expression counts were calculated using HTSeq v.0.6.0 (www.huber.embl.de/users/anders/HITSeq/doc/overview.html) based on a current Ensembl annotation file for mm10/GRCm38 (release 75). Differential expression analysis was performed using EgdeR package based on the criteria of >2-fold change in expression value versus control and false discovery rates (FDR)<0.05. Venn diagrams from gene set analysis were generated using genes with >1.5 fold change in expression values and FDR <0.05. Significance testing for gene set overlap was performed according to a standard hypergeometric distribution, p-values <2.2*10^−16. The accession number for the RNA-seq dataset reporter in this paper is GEO: GSE76932 (www.ncbi.nlm.nih.gov/geo/query/acc.cgi?acc=GSE76932).

[1] = in vivo; cited from earlier work

Row | SMILES | pKd (SIK2) | genes down-regulated by both PTH and YKL-05-093 (Ocy454 cells) | genes down-regulated by the agent alone (Ocy454 cells) | genes up-regulated by both PTH and YKL-05-093 (Ocy454 cells) | genes up-regulated by the agent alone (Ocy454 cells) | tolerability [1]
1 | COc1ccc(N2C(=O)N(c3c(C)cccc3C)Cc3cnc(Nc4ccc(C5CCN(C)CC5)c(OC)c4)nc32)c(OC)c1 [YKL-05-093] | 8.15 | 45 genes | 59 genes | 97 genes | 56 genes | 
2 | COc1ccc(N2C(=O)N(c3c(C)cccc3Cl)Cc3cnc(Nc4ccc(C5CCN(C)CC5)cc4OC)nc32)nc1 [YKL-05-099] |  |  |  |  |  | well-tolerated
